Like-named read-outs stand apart in the source and are kept apart here.
Columns and labels:
[1] = tested on: HSV-1 Strain F; experiment: Viral qPCR assay, HSV-1 in Vero cells; assay type: cell-based, Herpes Simplex Virus type 1; conditions: read-out: HSV1 VERO Cell (EC50)
Procedure, shortened: (§1)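 MRC5, MeWo (VZV Street strain, 0.04-0.1 pfu/cell) or Vero/MRC5 (HSV-1 Strain F, 0.0005-0.004 pfu/cell) cells infected in suspension and added to 10-point 3-fold compound dilutions; ~72 h at 37 °C. Lysates qPCR-quantified for viral genome copies against plasmid standard curve, in one format normalized to cellular PPIA; 4-parameter fit gives EC50.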

[2] = tested on: HCMV Strain AD169; experiment: Viral qPCR assay, HCMV in MRC-5 cells; assay type: cell-based, Human cytomegalovirus; conditions: read-out: CMV MRC5 Cell (EC50)
Procedure, shortened: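 MRC-5 cells infected in suspension with HCMV AD169 (0.05-0.1 pfu/cell) and added to 10-point 3-fold compound dilutions, in growth media or media with 50% FBS. After ~72 h at 37 °C, lysates analysed by TaqMan qPCR against a plasmid standard curve, viral copies normalised to PPIA or not. EC50 from 4-parameter fit.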

[3] = biological target: T1, varicella zoster virus DNA polymerase (Varicella-zoster virus, UniProt P09252); experiment: VZV polymerase assay (AlphaLISA); assay type: biochemical; conditions: VZV DNA polymerase 0.4 nM, 60 minutes at 37° C.
T1 construct: made in house; host or cells: SF21 insect cells (baculovirus vector)
T1 sequence (P09252 whole entry): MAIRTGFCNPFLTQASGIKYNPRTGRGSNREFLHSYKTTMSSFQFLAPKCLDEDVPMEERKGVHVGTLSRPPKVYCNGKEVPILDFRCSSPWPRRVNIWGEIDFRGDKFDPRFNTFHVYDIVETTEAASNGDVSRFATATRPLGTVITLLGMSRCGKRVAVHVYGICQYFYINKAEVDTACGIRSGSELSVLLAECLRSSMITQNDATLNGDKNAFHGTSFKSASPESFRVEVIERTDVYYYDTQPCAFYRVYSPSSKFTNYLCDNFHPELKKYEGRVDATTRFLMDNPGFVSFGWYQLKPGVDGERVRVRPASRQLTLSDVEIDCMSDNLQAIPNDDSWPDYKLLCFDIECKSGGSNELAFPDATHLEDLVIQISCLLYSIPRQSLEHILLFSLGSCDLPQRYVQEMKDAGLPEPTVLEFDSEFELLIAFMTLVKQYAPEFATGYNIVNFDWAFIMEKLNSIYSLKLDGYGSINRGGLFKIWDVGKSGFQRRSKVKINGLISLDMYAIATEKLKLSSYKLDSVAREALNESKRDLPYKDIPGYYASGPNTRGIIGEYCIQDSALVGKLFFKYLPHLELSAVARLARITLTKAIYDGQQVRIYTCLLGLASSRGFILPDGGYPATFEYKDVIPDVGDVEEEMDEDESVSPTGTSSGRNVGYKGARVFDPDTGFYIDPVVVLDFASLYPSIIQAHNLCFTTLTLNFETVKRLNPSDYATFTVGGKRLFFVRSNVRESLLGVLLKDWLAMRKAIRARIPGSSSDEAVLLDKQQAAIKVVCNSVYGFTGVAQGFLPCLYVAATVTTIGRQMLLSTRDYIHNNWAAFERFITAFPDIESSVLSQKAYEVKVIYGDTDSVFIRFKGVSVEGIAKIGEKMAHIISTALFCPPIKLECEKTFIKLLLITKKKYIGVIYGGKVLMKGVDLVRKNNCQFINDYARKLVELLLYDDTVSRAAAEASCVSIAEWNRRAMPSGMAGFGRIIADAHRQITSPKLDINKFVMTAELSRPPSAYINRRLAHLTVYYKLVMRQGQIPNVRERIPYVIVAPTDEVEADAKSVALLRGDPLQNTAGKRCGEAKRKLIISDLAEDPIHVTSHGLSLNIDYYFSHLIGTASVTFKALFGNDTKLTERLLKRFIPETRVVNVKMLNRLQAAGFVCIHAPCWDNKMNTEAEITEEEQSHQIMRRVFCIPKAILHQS
Procedure, shortened: (§2)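 Baculovirus/SF21-expressed polymerase (HCMV 0.2 nM; VZV 0.4 nM) pre-incubated 30 min at room temperature with compound in HEPES pH 7.5 buffer, then 60 min at 37 °C with 1.6 nM DIG-primer/template, sub-nM to 24 nM dNTPs and 0.8 nM biotin-dUTP. AlphaLISA detection; IC50 from 4-parameter fit.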

[4] = tested on: HSV-1 Strain F; experiment: Viral qPCR assay, HSV-1 in MRC5 cells; assay type: cell-based, Herpes Simplex Virus type 1; conditions: read-out: HSV1 MRC5 Cell (EC50)
Procedure, shortened: as §1

[5] = tested on: HSV2; experiment: Viral qPCR assay, HSV2 in Vero cells; assay type: cell-based, Herpes Simplex Virus type 2; conditions: read-out: HSV2 VERO Cell (EC50)
Procedure, shortened: (§3)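 Vero or MRC5 cells infected in suspension with HSV2 and added to a 10-point 3-fold compound dilution, then ~72 h at 37 °C. Lysates assayed by TaqMan qPCR against a plasmid standard curve; copies normalized to controls (with PPIA in one format) and EC50 from 4-parameter fit.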

[6] = tested on: VZV; experiment: Viral qPCR assay, VZV in MRC5 cells; assay type: cell-based, varicella zoster virus; conditions: read-out: VZV MRC5 Cell (IC50)
Procedure, shortened: as §1

[7] = tested on: VZV; experiment: Viral qPCR assay, VZV in MeWo cells; assay type: cell-based, varicella zoster virus; conditions: read-out: VZV MEWO Cell (IC50)
Method: (§4) MRCS cells, Vero cells, and MeWo cells were obtained from ATCC and were maintained at 37° C./5% CO2/90% relative humidity in Minimal Essential Medium with 10% fetal bovine serum, […] L-glutamine, 100 units/ml penicillin and 100 ug/ml streptomycin. Assay plates were prepared by dispensing compounds dissolved in DMSO into wells of 384 well collagen-coated plates using an ECHO acoustic dispenser. Each compound was tested in a 10-point, serial 3-fold dilution. Controls included uninfected cells and infected cells treated only with DMSO. Assays were initiated by mixing selected cells, in suspension, with virus, and dispensing 50 μl/well infected cells to pre-plated compounds. Plates were incubated at 37° C./5% CO2/90% relative humidity for ˜72 hrs to permit genomic replication, and infected cells were lysed by the addition of an equal volume of lysis buffer (10 mM Tris-HCl, pH8, 50 mM KCl, 2 mM MgCl2, 0.45% NP-40, 0.45% Tween-20, and 100 μg/ml proteinase K). An aliquot of the lysate was transferred to a 384-well PCR plate and incubated at 56° C. for 1 hour and then at 95° C. for 10 min. Levels of a viral gene and of the cellular control, PPIA (Thermo Fisher Assay ID=Hs04194521_s1), were measured in separate 10 μL qPCR assays using TaqMan® Gene Expression Master Mix (Applied Biosystems), and an 7900HT Fast Real-Time PCR System with 384-Well Block Module. 7-point, serial 10-fold dilutions of a plasmid standard were run on each plate to generate a standard curve, and genome copies numbers were calculated by plotting experimental Ct onto linear regression of the standard curve. Viral genome copy numbers were normalized by cellular control copy number, and compound effects were normalized to the window defined by the controls. Calculated % effects were fit using a 4-parameter algorithm, and EC50 was reported.
as §4, with “gene” for “gene and of the cellular control, PPIA (Thermo Fisher Assay ID=Hs04194521_s1),”, “in” for “in separate”, “Compound effects on viral” for “Viral”, “number” for “numbers were normalized by cellular control copy number, and compound effects”
VZV: Strain Street was maintained as an infected cell stock in MRC-5 cells. It was assayed in MeWo or MRCS cells and was used at 0.04-0.1 pfu/cell. The assays were performed in growth medium. Primer-probe set was Thermo Fisher Assay ID=AIPAEXQ. HSV-1: Strain F Street was assayed in Vero or MRCS cells and was used at 0.0005-0.004 pfu/cell in growth medium. Primer-probe set was Thermo Fisher Assay ID=AIBJZIB

[8] = tested on: HSV2; experiment: Viral qPCR assay, HSV2 in MRC5 cells; assay type: cell-based, Herpes Simplex Virus type 2; conditions: read-out: HSV2 MRC5 Cell (EC50)
Procedure, shortened: as §3

[9] = biological target: T2, Human cytomegalovirus DNA polymerase (Human cytomegalovirus, UniProt P08546); experiment: HCMV polymerase assay (AlphaLISA); assay type: biochemical; conditions: HCMV DNA polymerase 0.2 nM, 60 minutes at 37° C.; read-out: CMV (IC50)
T2 construct: made in house; host or cells: SF21 insect cells (baculovirus vector)
T2 sequence (P08546 whole entry): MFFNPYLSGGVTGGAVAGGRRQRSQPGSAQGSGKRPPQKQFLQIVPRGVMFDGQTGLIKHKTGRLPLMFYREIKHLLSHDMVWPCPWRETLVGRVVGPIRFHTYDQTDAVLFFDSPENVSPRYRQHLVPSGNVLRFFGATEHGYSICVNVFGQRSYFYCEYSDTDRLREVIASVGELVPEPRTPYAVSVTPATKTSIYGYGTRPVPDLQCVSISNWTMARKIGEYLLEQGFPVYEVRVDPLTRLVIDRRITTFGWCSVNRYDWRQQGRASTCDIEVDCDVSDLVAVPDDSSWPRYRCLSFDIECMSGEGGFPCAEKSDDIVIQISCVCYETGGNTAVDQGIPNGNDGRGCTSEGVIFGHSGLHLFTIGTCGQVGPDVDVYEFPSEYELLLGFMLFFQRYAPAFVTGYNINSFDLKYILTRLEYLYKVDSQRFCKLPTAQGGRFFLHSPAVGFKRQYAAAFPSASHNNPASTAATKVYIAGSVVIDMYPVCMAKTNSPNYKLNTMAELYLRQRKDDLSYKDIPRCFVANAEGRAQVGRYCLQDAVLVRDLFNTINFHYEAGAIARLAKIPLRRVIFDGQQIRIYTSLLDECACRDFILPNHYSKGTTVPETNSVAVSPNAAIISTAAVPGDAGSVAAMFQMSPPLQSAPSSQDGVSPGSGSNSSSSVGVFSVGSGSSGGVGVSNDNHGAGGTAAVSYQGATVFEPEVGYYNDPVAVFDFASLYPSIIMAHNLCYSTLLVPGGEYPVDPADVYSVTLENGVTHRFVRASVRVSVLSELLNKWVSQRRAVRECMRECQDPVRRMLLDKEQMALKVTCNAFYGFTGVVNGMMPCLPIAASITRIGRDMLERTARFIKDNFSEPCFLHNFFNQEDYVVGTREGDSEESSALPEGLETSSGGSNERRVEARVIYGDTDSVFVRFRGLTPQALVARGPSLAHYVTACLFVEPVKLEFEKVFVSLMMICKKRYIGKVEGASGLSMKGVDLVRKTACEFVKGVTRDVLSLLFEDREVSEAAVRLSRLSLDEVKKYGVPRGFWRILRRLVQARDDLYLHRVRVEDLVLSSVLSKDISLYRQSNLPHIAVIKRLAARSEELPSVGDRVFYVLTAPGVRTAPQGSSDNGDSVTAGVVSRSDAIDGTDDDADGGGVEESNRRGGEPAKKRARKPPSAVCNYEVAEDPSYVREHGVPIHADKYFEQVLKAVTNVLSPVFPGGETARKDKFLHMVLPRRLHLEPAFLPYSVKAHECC
Procedure, shortened: as §2

[10] = Human alphaherpesvirus 1, Vero, 72 h
[11] = Human betaherpesvirus 5, AD169, MRC5, 72 h
[12] = Human alphaherpesvirus 1, MRC5, 72 h
[13] = Human alphaherpesvirus 2, Vero, 72 h
[14] = Human alphaherpesvirus 3, MRC5, 72 h
[15] = Human alphaherpesvirus 3, ~72 hrs
[16] = Human alphaherpesvirus 2, MRC5, 72 h

EC50 [1, 10] [nM] | IC50 [3] [nM] | EC50 [5, 13] [nM] | IC50 [7, 15] [nM] | IC50 [9] [nM] | EC50 ([1]; ~72 hrs) [nM] | EC50 ([5]; ~72 hrs) [nM] | IC50 ([7]; ~72 hrs) [nM] | SMILES | EC50 [2, 11] [nM] | EC50 [4, 12] [nM] | IC50 [6, 14] [nM] | EC50 [8, 16] [nM] | EC50 ([2]; MRC5 cells, ~72 hrs) [nM] | EC50 ([4]; ~72 hrs) [nM] | IC50 ([6]; ~72 hrs) [nM] | EC50 ([8]; ~72 hrs) [nM]
99000 | 11.5 | 99000 | 484 | 11.3 | – | – | – | CC(C)C(=O)NCCn1nc(C(=O)NCc2ccc(Cl)cc2)c2c1CN(C[C@H]1CCC(=O)N1)C2 [Compound 25] | 970 | 17400 | 29000 | 16400 | – | – | – | –
– | 9.72 | – | – | 48.9 | 240 | 364 | 130 | Cn1nc(C(=O)NCc2ccc(Cl)cc2)c2c1CC(C[C@@H]1CCC(=O)N1)C2 (single isomer, unassigned) [Compound 127] | – | – | – | – | 599 | 694 | 407 | 278
2850 | 112 | 5460 | 1470 | 143 | – | – | – | Cn1nc(C(=O)NCc2ccc(Cl)c(F)c2)c2c1CN(C[C@H]1CCC(=O)N1)C2 [Compound 60] | 970 | 8350 | 5960 | 5570 | – | – | – | –

Source: patent US20240059693A1, “FUSED BICYCLIC PYRAZOLE DERIVATIVES AND METHODS OF USE THEREOF FOR THE TREATMENT OF HERPESVIRUSES” (Merck Sharp & Dohme LLC, priority 2020, published 2024)
